Measurements as given in ChEMBL document CHEMBL3132801, “Meridianin G and its analogs as antimalarial agents” (Medchemcomm, 2013).
≈ marks a conversion by molar mass, not a printed value. One block for each compound: values may come before it. Calls of active or inactive are those of the source. No cut-off for these calls is given here.

What was measured:
Leishmania donovani = test: Antileishmanial activity against Leishmania donovani promastigotes after 48 hrs by Alamar Blue assay; format: functional, organism-based; settings: for IC50: read-out: IC50
[1] = Selectivity index, ratio of IC50 for african green monkey Vero cells to IC50 for Plasmodium falciparum D6; format: toxicity, cell-based; settings: read-out: Ratio IC50
[2] = Selectivity index, ratio of IC50 for pig LLC-PK1 cells to IC50 for Plasmodium falciparum W2; format: toxicity, cell-based; settings: read-out: Ratio IC50
Plasmodium falciparum [3] = test: Antimicrobial activity against Plasmodium falciparum D6 after 72 hrs by LDH activity assay; format: functional, organism-based
Staphylococcus aureus [4] = test: Antimicrobial activity against methicillin-resistant Staphylococcus aureus by NCCLS method; format: functional, organism-based
[5] = Selectivity index, ratio of IC50 for human HepG2 cells to IC50 for Plasmodium falciparum D6; format: toxicity, cell-based; settings: read-out: Ratio IC50
Staphylococcus aureus [6] = test: Antimicrobial activity against Staphylococcus aureus by NCCLS method; format: functional, organism-based
[7] = Selectivity index, ratio of IC50 for african green monkey Vero cells to IC50 for Plasmodium falciparum W2; format: toxicity, cell-based; settings: read-out: Ratio IC50
Candida albicans = test: Antimicrobial activity against Candida albicans by NCCLS method; format: functional, organism-based
Aspergillus fumigatus = test: Antimicrobial activity against Aspergillus fumigatus by NCCLS method; format: functional, organism-based
LLC-PK1 = test: Cytotoxicity against a pig LLC-PK1 cells after 48 hrs by Neutral Red assay; format: cell-based; settings: Sus scrofa, LLC-PK1, 48 h
[8] = Selectivity index, ratio of IC50 for pig LLC-PK1 cells to IC50 for Plasmodium falciparum D6; format: toxicity, cell-based; settings: read-out: Ratio IC50
[9] = Selectivity index, ratio of IC50 for human HepG2 cells to IC50 for Plasmodium falciparum W2; format: toxicity, cell-based; settings: read-out: Ratio IC50
Cryptococcus neoformans = test: Antimicrobial activity against Cryptococcus neoformans by NCCLS method; format: functional, organism-based
Plasmodium falciparum [10] = test: Antimicrobial activity against Plasmodium falciparum W2 after 72 hrs by LDH activity assay; format: functional, organism-based
Vero = test: Cytotoxicity against african green monkey Vero cells after 48 hrs by Neutral Red assay; format: cell-based; settings: Chlorocebus sabaeus
HepG2 = test: Cytotoxicity against human HepG2 cells after 48 hrs by Neutral Red assay; format: cell-based; settings: HepG2, 48 h
Plasmodium falciparum [11] = test: Antimicrobial activity against Plasmodium falciparum NF54; format: functional
[12] = Plasmodium falciparum, D6, 72 h, read-out: IC50
[13] = Plasmodium falciparum, W2, 72 h, read-out: IC50

SMILES: Nc1nccc(-c2cn(C(=O)c3ccccc3)c3ccc(Br)cc23)n1
- IC50 (Leishmania donovani; Leishmania donovani, 48 h): 105 µM
- selectivity ratio [1]: > 8.5
- selectivity ratio [2]: > 16
- IC50 (Plasmodium falciparum [3]; [12]): 7.45 µM
- IC50 (Staphylococcus aureus [4]): Not Active
- MBC (Staphylococcus aureus [4]): inactive
- MIC (Staphylococcus aureus [4]): inactive
- selectivity ratio [5]: > 8.5
- IC50 (Staphylococcus aureus [6]): Not Active
- MBC (Staphylococcus aureus [6]): inactive
- MIC (Staphylococcus aureus [6]): inactive
- selectivity ratio [7]: > 16
- Activity (Candida albicans): inactive
- Activity (Aspergillus fumigatus): inactive
- IC50 (LLC-PK1): > 64 µM
- selectivity ratio [8]: > 8.5
- selectivity ratio [9]: > 16
- IC50 (Cryptococcus neoformans): 24.3 µM
- MBC (Cryptococcus neoformans): inactive
- MIC (Cryptococcus neoformans): inactive
- IC50 (Plasmodium falciparum [10]; [13]): 3.98 µM
- IC50 (Vero): > 64 µM
- IC50 (HepG2): > 64 µM

SMILES: Nc1nccc(-c2cn(Cc3ccc(Cl)s3)c3ccccc23)n1
- IC90 (Leishmania donovani): inactive
- IC50 (Leishmania donovani; Leishmania donovani, 48 h): 41.3 µM
- IC50 (Plasmodium falciparum [3]): Not Active
- IC50 (Staphylococcus aureus [4]): Not Active
- MBC (Staphylococcus aureus [4]): inactive
- MIC (Staphylococcus aureus [4]): inactive
- IC50 (Staphylococcus aureus [6]): Not Active
- MBC (Staphylococcus aureus [6]): inactive
- MIC (Staphylococcus aureus [6]): inactive
- Activity (Candida albicans): inactive
- Activity (Aspergillus fumigatus): inactive
- IC50 (LLC-PK1): > 74 µM
- IC50 (Cryptococcus neoformans): 13 µM
- MBC (Cryptococcus neoformans): 14.7 µM (≈ 5.01 µg/mL)
- MIC (Cryptococcus neoformans): 14.7 µM (≈ 5.01 µg/mL)
- IC50 (Plasmodium falciparum [10]): Not Active
- IC50 (Vero): > 74 µM
- IC50 (HepG2): > 74 µM

SMILES: COCCn1cc(-c2ccnc(N)n2)c2cc(Br)ccc21
- IC90 (Leishmania donovani; Leishmania donovani, 48 h): 52.2 µM
- IC50 (Leishmania donovani; Leishmania donovani, 48 h): 23.6 µM
- IC50 (Plasmodium falciparum [3]): Not Active
- IC50 (Staphylococcus aureus [4]): Not Active
- MBC (Staphylococcus aureus [4]): inactive
- MIC (Staphylococcus aureus [4]): inactive
- IC50 (Staphylococcus aureus [6]): Not Active
- MBC (Staphylococcus aureus [6]): inactive
- MIC (Staphylococcus aureus [6]): inactive
- Activity (Candida albicans): inactive
- Activity (Aspergillus fumigatus): inactive
- IC50 (LLC-PK1): 43 µM
- IC50 (Cryptococcus neoformans): 27.4 µM
- MBC (Cryptococcus neoformans): 57.6 µM (≈ 20 µg/mL)
- MIC (Cryptococcus neoformans): 57.6 µM (≈ 20 µg/mL)
- IC50 (Plasmodium falciparum [10]): Not Active
- IC50 (Vero): > 72 µM
- IC50 (HepG2): > 72 µM

- MIC (Plasmodium falciparum [11]): 3 µM (≈ 1.11 µg/mL)
SMILES: CN1CCN(c2ncc(-c3ccccc3)c(-c3c[nH]c4ccccc34)n2)CC1

SMILES: Nc1nccc(-c2cn(Cc3ccc(Cl)s3)c3ccc(Br)cc23)n1
- IC90 (Leishmania donovani; Leishmania donovani, 48 h): 41.2 µM
- IC50 (Leishmania donovani; Leishmania donovani, 48 h): 29.1 µM
- selectivity ratio [1]: > 4.4
- selectivity ratio [2]: > 5.9
- IC50 (Plasmodium falciparum [3]; [12]): 13.6 µM
- IC50 (Staphylococcus aureus [4]): Not Active
- MBC (Staphylococcus aureus [4]): inactive
- MIC (Staphylococcus aureus [4]): inactive
- selectivity ratio [5]: > 4.4
- MBC (Staphylococcus aureus [6]): inactive
- MIC (Staphylococcus aureus [6]): inactive
- IC50 (Staphylococcus aureus [6]; Staphylococcus aureus, read-out: IC50): 40.5 µM
- selectivity ratio [7]: > 5.9
- Activity (Candida albicans): inactive
- Activity (Aspergillus fumigatus): inactive
- IC50 (LLC-PK1): > 60 µM
- selectivity ratio [8]: > 4.4
- selectivity ratio [9]: > 5.9
- IC50 (Cryptococcus neoformans): 19.9 µM
- MBC (Cryptococcus neoformans): 47.7 µM (≈ 20 µg/mL)
- MIC (Cryptococcus neoformans): 47.7 µM (≈ 20 µg/mL)
- IC50 (Plasmodium falciparum [10]; [13]): 10.1 µM
- IC50 (Vero): > 60 µM
- IC50 (HepG2): > 60 µM

SMILES: Nc1nccc(-c2c[nH]c3ccc(Br)cc23)n1 [MERIDIANIN C]
- IC50 (Leishmania donovani; Leishmania donovani, 48 h): 64.9 µM
- selectivity ratio [1]: > 6
- selectivity ratio [2]: > 7.4
- IC50 (Plasmodium falciparum [3]; [12]): 14.4 µM
- IC50 (Staphylococcus aureus [4]): Not Active
- MBC (Staphylococcus aureus [4]): inactive
- MIC (Staphylococcus aureus [4]): inactive
- selectivity ratio [5]: > 6
- IC50 (Staphylococcus aureus [6]): Not Active
- MBC (Staphylococcus aureus [6]): inactive
- MIC (Staphylococcus aureus [6]): inactive
- selectivity ratio [7]: > 7.4
- Activity (Candida albicans): inactive
- Activity (Aspergillus fumigatus): inactive
- IC50 (LLC-PK1): > 87 µM
- selectivity ratio [8]: > 6
- selectivity ratio [9]: > 7.4
- IC50 (Cryptococcus neoformans): 56.5 µM
- MBC (Cryptococcus neoformans): inactive
- MIC (Cryptococcus neoformans): inactive
- IC50 (Plasmodium falciparum [10]; [13]): 11.7 µM
- IC50 (Vero): > 87 µM
- IC50 (HepG2): > 87 µM
